In patent publication US9657034B2, “Substituted furo[3,2-c]pyridines, thieno[3,2-c]pyridines, thieno[2,3-d]pyridazines and pyrido[3,4-d]pyridazines as phosphodiesterase type 10A inhibitors” (AbbVie Deutschland GmbH & Co. KG, priority 2011, dated 2017):

Key:
[1] = target: T1, PDE10A (human) (Homo sapiens, UniProt Q9Y233); test: Measurement of PDE activity (HTRF cAMP kit), PDE10A human; assay type: biochemical; conditions: Table 1
T1 construct: purchased BPS Bioscience
Experimental: The recombinant PDE proteins are used in in vitro enzymatic reaction for measurement of PDE activity. These recombinant proteins, including PDE10A (human, rat and mouse PDE10) and isoforms of PDEs 1, 3, 4, and 5, were purchased from commercial vendor BPS Bioscience. The enzymatic activity of PDEs was determined by cAMP measurement kit from CisBio (IBA) using HTRF technology.
The PDE enzymatic reaction was carried out in assay buffer (20 mM Tris-HCl pH7.5, 10 mM MgCl2, 0.1% bovine serum albumin) containing enzyme and substrate. The PDE enzymes concentration ranged from 10 pM-250 pM, depending on each enzyme's specific activity. The substrate cyclic nucleotide (cAMP or cGMP) concentration used in the assay was 20 nM for PDE10, and 100 nM for other PDEs. The inhibitory effect of compound was determined by incubating various concentration of inhibitor in the enzymatic assay. Typically, compound was serial diluted in DMSO then further diluted in assay buffer. Next, the compound at varying concentration was mixed with PDE enzyme. The reaction was initiated by addition of cyclic nucleotide substrate, and incubated for 60 minutes at 29 C. The reaction was stopped by addition of lysis buffer from assay kit. The cAMP-d2 and anti-cAMP cryptate in the lysis buffer detected the level of cAMP left from the PDE hydrolysis reaction. […]

[2] = system: rats; conditions: cited from earlier work
[3] = system: rats; conditions: cited from earlier work; remark: listed apart in the source
[4] = system: rats; conditions: cited from earlier work; remark: listed apart in the source

T1 sequence (Q9Y233 whole entry): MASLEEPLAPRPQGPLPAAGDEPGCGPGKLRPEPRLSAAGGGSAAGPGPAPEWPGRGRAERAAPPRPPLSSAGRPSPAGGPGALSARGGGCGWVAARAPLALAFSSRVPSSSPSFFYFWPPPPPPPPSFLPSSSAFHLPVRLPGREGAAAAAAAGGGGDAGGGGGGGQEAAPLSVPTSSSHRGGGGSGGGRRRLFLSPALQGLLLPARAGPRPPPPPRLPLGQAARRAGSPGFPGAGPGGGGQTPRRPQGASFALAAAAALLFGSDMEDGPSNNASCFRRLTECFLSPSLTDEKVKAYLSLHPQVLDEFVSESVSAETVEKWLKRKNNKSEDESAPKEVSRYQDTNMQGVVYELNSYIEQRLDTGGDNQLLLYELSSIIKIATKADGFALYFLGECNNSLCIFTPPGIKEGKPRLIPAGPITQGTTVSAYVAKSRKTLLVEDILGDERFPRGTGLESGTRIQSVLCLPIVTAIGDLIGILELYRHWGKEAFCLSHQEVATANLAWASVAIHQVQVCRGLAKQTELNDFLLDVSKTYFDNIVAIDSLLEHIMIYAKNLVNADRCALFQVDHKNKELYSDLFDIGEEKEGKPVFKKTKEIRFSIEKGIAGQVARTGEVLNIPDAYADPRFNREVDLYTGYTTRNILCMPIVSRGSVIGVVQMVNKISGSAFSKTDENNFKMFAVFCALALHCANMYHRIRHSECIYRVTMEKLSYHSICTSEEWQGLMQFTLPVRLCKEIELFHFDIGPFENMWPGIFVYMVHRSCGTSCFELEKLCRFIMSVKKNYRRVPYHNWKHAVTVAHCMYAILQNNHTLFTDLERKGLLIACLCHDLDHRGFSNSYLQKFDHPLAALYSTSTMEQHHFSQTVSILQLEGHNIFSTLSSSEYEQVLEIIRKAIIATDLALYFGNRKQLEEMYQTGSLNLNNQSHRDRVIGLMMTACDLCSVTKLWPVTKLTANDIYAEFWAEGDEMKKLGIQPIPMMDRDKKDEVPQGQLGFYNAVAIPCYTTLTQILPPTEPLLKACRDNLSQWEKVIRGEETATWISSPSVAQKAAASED

Row | Molecule | IC50 [1] [nM] | catalepsy on its own ([2]; papaverine alone) | cataleptic effect of the D2 receptor antagonist haloperidol ([2]; together with haloperidol) | reduction of amphetamine-induced hyperactivity [3] | hyperactivity in rats induced by PCP [4]
1 | O=c1c2cccc(-c3cccc(O)c3)c2cnn1CCc1ccc2ccccc2n1 [Example 220, 5-(3-hydroxyphenyl)-2-[2-(quinolin-2-yl)ethyl]phthalazin-1(2H)-one] | < 100 | – | – | – | –
2 | anti 8-((3 S)-3-hydroxypiperidin-1-yl)-2-(2-(quinolin-2-yl)cyclopropyl)isoquinolin-1(2H)-one (2E)-but-2-enedioate [Example 244] | < 100 | – | – | – | –
3 | COc1ccc(Cc2nccc3cc(OC)c(OC)cc23)cc1OC [Papaverine, papaverine] | – | did not cause catalepsy | potentiated the cataleptic effect | insignificant | reduced hyperactivity
